We go through 12 molecules from ChEMBL document CHEMBL1201862, “PubChem BioAssay data set” (2004).

Some test systems named below: HOP-62; SW-620; OVCAR-8; NCI-H460; IGROV-1; COLO 205; MOLT-4; HCC 2998; T47D; DU-145; SN12C; 786-0; PC-3; UACC-257; K562; SNB-75; UACC-62; RXF 393; HOP-92.
Holding throughout (test): DTP human tumour cell line panel, 48 h

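Cultured in 96-well plates, cells were exposed to test compound for 48 hours across five concentrations. GI50 is the concentration that inhibits growth by half.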 Calls of active or inactive are those of the source. No stated cut-off is given here; in the data, active = GI50 up to about 1.1 µM and inactive = higher.

A word on the GI50: it is the concentration that inhibits growth by half.

For `CC(C)=CCOC(=O)C(C)=[N+]=[N-]`, the GI50 with HOP-62, in the test with SW-620, with OVCAR-8, in the test on NCI-H460, with IGROV-1 and in the test on COLO 205 was > 100 µM (inactive) throughout. Besides, the GI50 with MOLT-4 was 59 µM (inactive); with HCC 2998, > 100 µM (inactive); in the test with T47D, > 100 µM (inactive); in the test on DU-145, > 100 µM (inactive); with SN12C, > 100 µM (inactive); with 786-0, > 100 µM (inactive). Also, the GI50 with PC-3, in the test with UACC-257, with K562, with SNB-75 and in the test with UACC-62 was > 100 µM (inactive) in each case.
For the molecule `CNS(=O)(=O)NNS(=O)(=O)c1ccc(Cl)cc1`, the GI50 in the test on HOP-62, in the test with SW-620, in the test on OVCAR-8, with NCI-H460, in the test on IGROV-1 and with COLO 205 was > 100 µM (inactive) in each case. Further, the GI50 in the test with MOLT-4, with RXF 393, in the test on HCC 2998, in the test with SN12C, with HOP-92 and in the test on 786-0 was > 100 µM (inactive) each time. The GI50 with UACC-257, in the test on K562 and in the test on UACC-62 was > 100 µM (inactive) throughout.
With `COC(=O)C(NC(=O)CNC(=O)CSc1nnc(COc2ccc(Cl)cc2)n1-c1ccccc1)C(C)C` (stereo unspecified), the GI50 is 26.5 µM (inactive) in the test on HOP-62; 20.2 µM (inactive) in the test with SW-620; 20.1 µM (inactive) in the test with OVCAR-8; 18.8 µM (inactive) in the test with NCI-H460; 18.8 µM (inactive) in the test with IGROV-1; 19.5 µM (inactive) in the test on COLO 205. In addition, the GI50 in the test on MOLT-4 was 22.3 µM (inactive); in the test on RXF 393, 18.1 µM (inactive); in the test with HCC 2998, 18.5 µM (inactive); in the test with DU-145 it was 18.8 µM (inactive); in the test on SN12C it was 18.4 µM (inactive); with HOP-92 it was 20.8 µM (inactive). For the same molecule, the GI50 with 786-0 is 18.4 µM (inactive); with PC-3 it was 17.9 µM (inactive); with UACC-257, 18 µM (inactive); in the test with K562, 33.3 µM (inactive); with SNB-75 it was 21.3 µM (inactive); in the test with UACC-62, 16.6 µM (inactive).
Take `O=C(COc1ccc(Cl)cc1)N1N=C(c2ccc([N+](=O)[O-])o2)CC1(O)c1ccccc1` (stereo unspecified): the GI50 in the test with HOP-62 is 20 µM (inactive); in the test with SW-620, 4.71 µM (inactive); with OVCAR-8 it was 5.62 µM (inactive); in the test with NCI-H460, 11.1 µM (inactive); in the test with IGROV-1 it was 6.24 µM (inactive); with COLO 205, 3.52 µM (inactive). Moreover, the GI50 was 3.42 µM (inactive) in the test on MOLT-4; 4.11 µM (inactive) with HCC 2998; 4.44 µM (inactive) in the test on SN12C; 20.2 µM (inactive) in the test on HOP-92; 7.62 µM (inactive) in the test with 786-0; 4.05 µM (inactive) in the test on UACC-257. The GI50 with K562 was 3.72 µM (inactive); in the test on SNB-75 it was > 10 µM (inactive); in the test with UACC-62 it was 3.87 µM (inactive).
For `COc1ccc(CNc2nc3ccccc3nc2-c2cccs2)cc1`, the GI50 with HOP-62 is > 100 µM (inactive); in the test with SW-620 it was 51.9 µM (inactive); in the test on OVCAR-8, 28.9 µM (inactive); in the test with NCI-H460 it was 24.2 µM (inactive); with IGROV-1 it was 68.9 µM (inactive); in the test on COLO 205, 38.1 µM (inactive). For the same molecule, the GI50 in the test on MOLT-4 was 5.31 µM (inactive); in the test on RXF 393, 23.8 µM (inactive); in the test on HCC 2998 it was 45.6 µM (inactive); in the test on T47D, 22.9 µM (inactive); with DU-145, > 100 µM (inactive); with HOP-92, 16.6 µM (inactive). In addition, the GI50 in the test on 786-0 is 43.9 µM (inactive); in the test with UACC-257 it was 31.2 µM (inactive); in the test with K562, 23.6 µM (inactive); with SNB-75, > 100 µM (inactive); in the test on UACC-62 it was 38.4 µM (inactive).
For the molecule `CCC(Cc1cnc2nc(N)nc(N)c2n1)c1ccc(C(=O)NC(CCC(=O)O)C(=O)O)cc1` (stereo unspecified), the GI50 with HOP-62 is 0.00515 µM (active); in the test on SW-620 it was 0.000176 µM (active); in the test with OVCAR-8, 0.000624 µM (active); in the test with NCI-H460, 0.000315 µM (active); in the test on COLO 205, 3.24 µM (inactive); in the test with MOLT-4 it was 0.000264 µM (active). Further, the GI50 was 1.78 µM (inactive) with T47D; 0.000548 µM (active) in the test on DU-145; 0.000551 µM (active) in the test with SN12C; 0.000146 µM (active) in the test with 786-0; < 0.0001 µM (active) in the test with PC-3; 0.103 µM (active) in the test with UACC-257. The 50% growth inhibitory concentration (GI50) with K562 is < 0.0001 µM (active); in the test with SNB-75, 0.329 µM (active); in the test with UACC-62 it was 0.000396 µM (active).
`C[C@H]1CCC2C(CN3CCCCC3)C(=O)OC2[C@]2(C)C(=O)CC(N3CCCCC3)C12O` (stereo partly specified): the GI50 with SW-620 was 3.64 µM (inactive); in the test on OVCAR-8, 1.79 µM (inactive); with NCI-H460, 12.8 µM (inactive); in the test with IGROV-1, 18.8 µM (inactive); in the test on COLO 205, 4.69 µM (inactive); in the test on MOLT-4 it was 2.21 µM (inactive). Further, the GI50 with RXF 393 is 1.86 µM (inactive); in the test with HCC 2998 it was 5.87 µM (inactive); in the test on SN12C it was 3.75 µM (inactive); with HOP-92 it was 2.68 µM (inactive); in the test with 786-0, 4.54 µM (inactive); in the test with UACC-257, 3.1 µM (inactive). For the same molecule, the figures for the GI50 in the test on K562, with SNB-75 and in the test with UACC-62 were 2.4 µM (inactive), 11.3 µM (inactive) and 2.36 µM (inactive), respectively.
In the case of `CCc1nc2cc(F)ccc2[nH]c1=O`, the GI50 in the test with HOP-62, in the test on SW-620, with OVCAR-8, with NCI-H460, with COLO 205 and with MOLT-4 was > 100 µM (inactive) in each case. In addition, the GI50 in the test with RXF 393 is 27.9 µM (inactive); in the test with HCC 2998, > 100 µM (inactive); with DU-145, 65.5 µM (inactive); in the test on SN12C it was > 100 µM (inactive); in the test on HOP-92 it was > 100 µM (inactive); with 786-0, > 100 µM (inactive). The GI50 in the test on PC-3 is > 100 µM (inactive); in the test with UACC-257 it was > 100 µM (inactive); in the test with K562 it was > 100 µM (inactive); in the test on SNB-75 it was 82.8 µM (inactive); in the test on UACC-62 it was 38.7 µM (inactive).
On to `CC(=O)/N=C1\NC(=O)/C(=C/c2ccc(Cl)cc2Cl)N1C`, for which the GI50 is 41.8 µM (inactive) with HOP-62; 80.9 µM (inactive) with SW-620; 31.6 µM (inactive) with OVCAR-8; 35.2 µM (inactive) in the test on NCI-H460; 32.6 µM (inactive) with IGROV-1; > 100 µM (inactive) in the test with COLO 205. The GI50 with MOLT-4 was 7.76 µM (inactive); in the test with RXF 393, 75 µM (inactive); with HCC 2998 it was > 100 µM (inactive); with DU-145, 60.4 µM (inactive); in the test with HOP-92 it was 83.8 µM (inactive); in the test on 786-0, 56.4 µM (inactive). Besides, the GI50 in the test with PC-3 was > 100 µM (inactive); in the test with UACC-257 it was > 100 µM (inactive); in the test on SNB-75, 58.1 µM (inactive); in the test with UACC-62, 9.04 µM (inactive).
For `CCN(CC)c1ccc2cc(C(N)=O)/c(=N/c3ccc(F)cc3)oc2c1`, the GI50 in the test with HOP-62 was 28 µM (inactive); in the test on SW-620, > 100 µM (inactive); in the test on OVCAR-8 it was 22.8 µM (inactive); with NCI-H460, 6.76 µM (inactive); with IGROV-1, 26.7 µM (inactive); in the test with COLO 205, > 100 µM (inactive). Besides, the GI50 in the test with MOLT-4 was > 100 µM (inactive); with RXF 393 it was 22.8 µM (inactive); in the test with HCC 2998 it was 59.2 µM (inactive); with T47D, 14.2 µM (inactive); in the test with SN12C, 45.4 µM (inactive); in the test on HOP-92 it was 18.7 µM (inactive). The GI50 in the test with 786-0 was 14.8 µM (inactive); with PC-3, 77.1 µM (inactive); in the test on UACC-257, > 100 µM (inactive); in the test on K562, > 100 µM (inactive); in the test with SNB-75 it was 20.4 µM (inactive); in the test with UACC-62 it was 26.4 µM (inactive).
Consider `Cc1n[nH]c(=O)n1/N=C\c1ccccc1`, for which the GI50 in the test with HOP-62, with SW-620, with OVCAR-8, with NCI-H460, with IGROV-1 and in the test on COLO 205 was > 100 µM (inactive) in each case. In addition, the GI50 in the test on MOLT-4 was > 100 µM (inactive); in the test on RXF 393, < 0.01 µM (active); in the test with HCC 2998 it was > 100 µM (inactive); in the test on DU-145, > 100 µM (inactive); with SN12C, > 100 µM (inactive); with 786-0, > 100 µM (inactive). Moreover, the GI50 in the test with PC-3, with UACC-257, in the test with K562 and in the test on UACC-62 was > 100 µM (inactive) each time.
Consider `Cc1[nH]n(C(=N)N)c(=O)c1CCO`, for which the GI50 in the test on HOP-62 is > 100 µM (inactive); in the test with SW-620, > 100 µM (inactive); in the test on OVCAR-8 it was 1.68 µM (inactive); in the test on NCI-H460, > 100 µM (inactive); with IGROV-1, > 100 µM (inactive); in the test with COLO 205 it was > 100 µM (inactive). The GI50 with RXF 393 was > 100 µM (inactive); in the test on HCC 2998, > 100 µM (inactive); with DU-145, > 100 µM (inactive); with SN12C it was > 100 µM (inactive); with HOP-92 it was > 100 µM (inactive); in the test on 786-0, 1.67 µM (inactive). Besides, the GI50 in the test with PC-3, in the test with UACC-257, in the test on K562, in the test with SNB-75 and with UACC-62 was > 100 µM (inactive) in each case.
